Assay [1] has as its system A2780 (ovarian) cells. Kind of assay: Anti-proliferative activity, Cell-Titre luminescent viability assay. The format is cell-based. The settings on record: Homo sapiens, 72 h exposure, Cell-Titre luminescent reagent. The method, then: (§1) The ability of compounds of the disclosure to inhibit the proliferation of cancer cells representative of non-small cell lung cancer and ovarian cancer (Table 1), and pancreatic cancer, colorectal cancer and prostate cancer (Table 2) was assessed. Briefly, a predetermined number of cells as calculated from cell growth assays for each of the cell lines employed were seeded into their respective culture medium (using ATCC culture parameters—http://www.atcc.org) and cultured for 24 h at 37° C. and 5% CO2 in 96-well culture plates. Once attached, each cell line was then exposed to various concentrations of each respective analogue (100, 30, 10, 3, 1 and 0.3 µM or 30, 10, 3, 1, 0.3 and 0.1 μM), cultured for a further 72 h and exposed to Cell-Titre luminescent reagent (100 μL/well) for a further 30 min. Luminescence was captured using an EnVision multilabel reader and the data for each analogue concentration compared against no treatment control. Cell viability was normalised to control (vehicle alone) and dose response curves, and half maximal effective concentration (EC50) values were determined using Graph Pad Prism 6 (nonlinear regression sigmoidal dose-response variable slope).

Assay [2] relates to A549 (NSCLC) cells. Described as above. The settings on record: Homo sapiens, 72 h exposure, Cell-Titre luminescent reagent. The format is cell-based. As for the experimental part: as §1

Molecules are shown by their SMILES.

Usually IC50 stands for the concentration that inhibits the measured activity by half. Low values mean greater potency, high ones weaker potency.

As to `Cc1ccc(NC(=O)C2CCN(S(=O)(=O)c3cc(C(N)=O)n(C)c3)CC2)cc1O` [Compound 1, 1-((5-carbamoyl-1-methyl-1H-pyrrol-3-yl)sulfonyl)-N-(3-hydroxy-4-methylphenyl)piperidine-4-carboxamide], the IC50 in assay [1] and in assay [2] was more than 100 µM in each case.

Consider `Cc1ccc(NC(=O)C2CCN(S(=O)(=O)c3ccc4c(c3)CCN4)CC2)cc1O` [Compound 4, N-(3-hydroxy-4-methylphenyl)-1-(indolin-5-ylsulfonyl)piperidine-4-carboxamide], for which the IC50 in assay [1] and in assay [2] was more than 100 µM throughout.

For `CCC(C)c1ccc(NC(=O)N2CCN(S(=O)(=O)c3cc(C(N)=O)n(C)c3)CC2)cc1` (stereo not drawn) [Compound 9, N-(4-(sec-butyl)phenyl)-4-((5-carbamoyl-1-methyl-1H-pyrrol-3-yl)sulfonyl)piperazine-1-carboxamide], the half-inhibitory concentration (IC50) in assay [1] and in assay [2] was more than 100 µM each time.

As to `Cc1ccc(NC(=O)N2CCN(S(=O)(=O)c3cc(C(N)=O)n(C)c3)CC2)cc1O` [Compound 10, 4-((5-carbamoyl-1-methyl-1H-pyrrol-3-yl)sulfonyl)-N-(3-hydroxy-4-methylphenyl)piperazine-1-carboxamide], the IC50 in assay [1] and in assay [2] was more than 100 µM in each case.

In the case of `CCC(C)c1ccc(NC(=O)N2CCN(S(=O)(=O)c3ccc4c(c3)CCN4)CC2)cc1` (stereo not drawn) [Compound 12, N-(4-(sec-butyl)phenyl)-4-(indolin-5-ylsulfonyl)piperazine-1-carboxamide], the IC50 in assay [1] and in assay [2] was more than 100 µM in each case.

For `Cc1ccc(NC(=O)N2CCN(S(=O)(=O)c3ccc4c(c3)CCN4)CC2)cc1O` [Compound 13, N-(3-hydroxy-4-methylphenyl)-4-(indolin-5-ylsulfonyl)piperazine-1-carboxamide], the IC50 in assay [1] and in assay [2] was more than 100 µM throughout.

As for `Cc1ccc(NC(=O)c2ccn(S(=O)(=O)c3cc(C(N)=O)n(C)c3)c2)cc1O` [Compound 19, 4-((3-((3-hydroxy-4-methylphenyl)carbamoyl)-1H-pyrrol-1-yl)sulfonyl)-1-methyl-1H-pyrrole-2-carboxamide], the IC50 in assay [1] is not below 100 µM; in assay [2] it was more than 100 µM.

Turning to `Cn1cc(S(=O)(=O)n2ccc(C(=O)Nc3ccc(C(F)(F)F)cc3)c2)cc1C(N)=O` [Compound 20, 1-methyl-4-((3-((4-(trifluoromethyl)phenyl)carbamoyl)-1H-pyrrol-1-yl)sulfonyl)-1H-pyrrole-2-carboxamide], the values for the IC50 in assay [1] and in assay [2] were 24.7 µM and more than 100 µM, respectively.

As to `CCC(C)c1ccc(NC(=O)C2CCN(S(=O)(=O)c3cc(C(=O)N(C)C)n(C)c3)CC2)cc1` (stereo not drawn) [Compound 27, N-(4-(sec-butyl)phenyl)-1-((5-(dimethylcarbamoyl)-1-methyl-1H-pyrrol-3-yl)sulfonyl)piperidine-4-carboxamide], the half-inhibitory concentration (IC50) in assay [1] and in assay [2] was more than 100 µM in each case.

Consider `Cn1cc(S(=O)(=O)N2CCC(C(=O)Nc3ccccc3)CC2)cc1C(N)=O` [Compound 30, 1-((5-carbamoyl-1-methyl-1H-pyrrol-3-yl)sulfonyl)-N-phenylpiperidine-4-carboxamide], for which the IC50 in assay [1] and in assay [2] was more than 100 µM each time.

As to `Cn1cc(S(=O)(=O)N2CCC(C(=O)NC3CCCCC3)CC2)cc1C(N)=O` [Compound 31, 1-((5-carbamoyl-1-methyl-1H-pyrrol-3-yl)sulfonyl)-N-cyclohexylpiperidine-4-carboxamide], the 50% inhibitory concentration (IC50) in assay [1] and in assay [2] was more than 100 µM throughout.

For `CNC(=O)C1CCN(S(=O)(=O)c2cc(C(N)=O)n(C)c2)CC1` [Compound 32, 1-((5-carbamoyl-1-methyl-1H-pyrrol-3-yl)sulfonyl)-N-methylpiperidine-4-carboxamide], the IC50 in assay [1] and in assay [2] was more than 100 µM each time.

`CCC(C)c1ccc(NCC2CCN(S(=O)(=O)c3cc(C(N)=O)n(C)c3)CC2)cc1` (stereo not drawn) [Compound 33, 4-((4-(((4-(sec-butyl)phenyl)amino)methyl)piperidin-1-yl)sulfonyl)-1-methyl-1H-pyrrole-2-carboxamide]: the half-inhibitory concentration (IC50) is 12.1 µM in assay [1] and more than 100 µM in assay [2].

Regarding `CC(C)c1ccccc1NC(=O)c1ccn(S(=O)(=O)c2ccc3[nH]ccc3c2)c1` [Compound 39, 1-((1H-indol-5-yl)sulfonyl)-N-(2-isopropylphenyl)-1H-pyrrole-3-carboxamide], the half-inhibitory concentration (IC50) in assay [1] and in assay [2] was more than 30 µM each time.

For the compound `CCc1ccc(NC(=O)c2ccn(S(=O)(=O)c3ccc4[nH]ccc4c3)c2)cc1` [Compound 40, 1-((1H-indol-5-yl)sulfonyl)-N-(4-ethylphenyl)-1H-pyrrole-3-carboxamide], the IC50 in assay [1] worked out at 11 µM; in assay [2], 11.3 µM.

As for `CCc1ccccc1NC(=O)c1ccn(S(=O)(=O)c2ccc3[nH]ccc3c2)c1` [Compound 42, 1-((1H-indol-5-yl)sulfonyl)-N-(2-ethylphenyl)-1H-pyrrole-3-carboxamide], the IC50 in assay [1] turned out to be 13.4 µM; in assay [2], 9.8 µM.

On to `Cc1cccc(C)c1NC(=O)c1ccn(S(=O)(=O)c2ccc3[nH]ccc3c2)c1` [Compound 51, 1-((1H-indol-5-yl)sulfonyl)-N-(2,6-dimethylphenyl)-1H-pyrrole-3-carboxamide], for which the IC50 in assay [1] came to 7.2 µM; in assay [2] it was 17.9 µM.

In the case of `Cc1cc(C)cc(NC(=O)c2ccn(S(=O)(=O)c3ccc4[nH]ccc4c3)c2)c1` [Compound 52, 1-((1H-indol-5-yl)sulfonyl)-N-(3,5-dimethylphenyl)-1H-pyrrole-3-carboxamide], the 50% inhibitory concentration (IC50) was found to be 11.8 µM in assay [1] and 10.7 µM in assay [2].

Turning to `O=C(Nc1c(F)cccc1F)c1ccn(S(=O)(=O)c2ccc3[nH]ccc3c2)c1` [Compound 53, 1-((1H-indol-5-yl)sulfonyl)-N-(2,6-difluorophenyl)-1H-pyrrole-3-carboxamide], the IC50 in assay [1] and in assay [2] was more than 30 µM throughout.

As to `O=C(Nc1cc(F)cc(F)c1)c1ccn(S(=O)(=O)c2ccc3[nH]ccc3c2)c1` [Compound 54, 1-((1H-indol-5-yl)sulfonyl)-N-(3,5-difluorophenyl)-1H-pyrrole-3-carboxamide], the concentration for half-maximal inhibition (IC50) in assay [1] is 8.2 µM; in assay [2], 13.1 µM.

Turning to `Cc1cccc(F)c1NC(=O)c1ccn(S(=O)(=O)c2ccc3[nH]ccc3c2)c1` [Compound 55, 1-((1H-indol-5-yl)sulfonyl)-N-(2-fluoro-6-methylphenyl)-1H-pyrrole-3-carboxamide], the IC50 in assay [1] and in assay [2] was more than 30 µM each time.

With `Cc1cc(F)cc(NC(=O)c2ccn(S(=O)(=O)c3ccc4[nH]ccc4c3)c2)c1` [Compound 56, 1-((1H-indol-5-yl)sulfonyl)-N-(3-fluoro-5-methylphenyl)-1H-pyrrole-3-carboxamide], the IC50 is 19.5 µM in assay [1] and 17.9 µM in assay [2].

`CCc1ccccc1NC(=O)C1CCN(S(=O)(=O)c2ccc3[nH]ccc3c2)CC1` [Compound 61, 1-((1H-indol-5-yl)sulfonyl)-N-(2-ethylphenyl)piperidine-4-carboxamide]: the IC50 in assay [1] and in assay [2] was more than 30 µM each time.

Consider `Cc1ccccc1NC(=O)C1CCN(S(=O)(=O)c2ccc3[nH]ccc3c2)CC1` [Compound 62, 1-((1H-indol-5-yl)sulfonyl)-N-(o-tolyl)piperidine-4-carboxamide], for which the IC50 in assay [1] and in assay [2] was more than 30 µM throughout.

For the origin of these results see US12528792B2, “Sulfonamide compounds and the use thereof in the treatment of cancer” (TROBIO THERAPEUTICS PTY LTD, priority 2019, dated 2026).
